Molecules are shown by their SMILES. Entries after “also recorded” stand apart in the source; their conditions may differ. Read-outs that look alike come from different tables or passages of the source. A value given as a limit tells only on which side of the number the result lay.

As a reminder, the inhibition is the relative decrease from the control value, in per cent. As a reminder, the bioavailability is dose-corrected exposure relative to a reference, in per cent. A lower bioavailability goes with little systemic uptake. The term clearance denotes a measure of how efficiently the substance is removed, as volume per time. High values mean efficient removal, low ones inefficient removal.

The test system of series [1] is Imidazoline, I2 central. The series is described as follows: Imidazoline binding assay: I2 central. Conditions: Test Compound @ 10 1 M.
The target in series [2] is Dopamine, D3 (hr) (Homo sapiens, UniProt P35462). The series is described as follows: Receptor binding assay: Dopamine D3. Conditions: Test Compound @ 10 1 M.
The test system of series [3] is cortical 5-HT. The series is described as follows: Microdialysis study, rat dorsal lateral frontal cortex. The conditions noted are these: male Sprague-Dawley rats, 30 mg/kg, combined with 5-HT1A antagonist WAY-100635 (0.3 mg/kg, s.c.) given 20 min before. Type of series: in vivo. How it is done:
1-[2-dimethylamino-1-(4-phenol)ethyl]-cis-1,4-cyclohexandiol was evaluated in a microdialysis study conducted in male Sprague-Dawley rats [M T Taber et al, Differential effects of coadministration of fluoxetine and WAY-100635 on serotonergic neurotransmission in vivo: sensitivity to sequence of injections, Synapse, 2000 October; 38(1):17-26.] This technique can capture the neurochemical effects of compounds in the brains of freely-moving rodents. The effects of 1-[2-dimethylamino-1-(4-phenol)ethyl]-cis-1,4-cyclohexandiol were studied in the rat dorsal lateral frontal cortex, a brain region thought to be involved in etiology and/or treatment of depression. To see whether any effects on serotonin could be observed, the compound (30 mg/kg, sc) was tested in combination with the selective 5-HT1A antagonist, N-[2-[4-(2-methoxyphenyl)-1-piperazinyl] ethyl]-N-(2-pyridinyl)cyclohexanecarboxamide (WAY-100635). […]
• 24 hr post-operative recovery • 3 hr equilibration after probe insertion • 1 hr 40 min baseline • 5-HT1A antagonist N-[2-[4-(2-methoxyphenyl)-1-piperazinyl]ethyl]-N-(2-pyridinyl)cyclohexanecarboxamide [WAY-100635] (0.3 mg/kg, s.c.) given 20 min before 1-[2-dimethylamino-1-(4-phenol)ethyl]-cis-1,4-cyclohexandiol (30 mg/kg, […]) Sample Collection: Samples collected for 3 hr 2 min post-injections Analysis: 5-HT levels quantified by HPLC-ECD

The target in series [4] is T1, Serotonin, 5HT3 (hr) (Homo sapiens, UniProt P46098).
T1 construct: Novascreen (contract assay)
Description: Receptor binding assay: Serotonin 5HT3. The conditions noted are these: Test Compound @ 10 1 M.

Series [5] has as its target T2, Opiate, Kappa (hr) (Homo sapiens, UniProt P41145).
T2 construct: Novascreen (contract assay)
Description: Receptor binding assay: Opiate Kappa. Conditions: Test Compound @ 10 1 M.

The target in series [6] is T3, Serotonin, 5HT2A (h) (Homo sapiens, UniProt P28223).
T3 construct: Novascreen (contract assay)
Description: Receptor binding assay: Serotonin 5HT2A. Conditions: Test Compound @ 10 1 M.

The target of series [7] is T4, Opiate, Mu (hr) (Homo sapiens, UniProt P35372).
T4 construct: Novascreen (contract assay)
The series is described as follows: Receptor binding assay: Opiate Mu. The conditions noted are these: Test Compound @ 10 1 M.

Series [8] is described as follows: Pharmacokinetics in dog. Type of series: in vivo. The conditions noted are these: plasma, male dogs. How it is done:
Preclinical pharmacokinetics of 1-[2-dimethylamino-1-(4-phenol)ethyl]-cis-1,4-cyclohexandiol was determined after a single 2.5 mg/kg IV bolus and 7.5 mg/kg oral dose in male dogs. […] The oral bioavailability was high (60%).

Series [9] in a line: Hygroscopicity. Type of series: physicochemical.
Series [10] relates to mouse PPQ induced writhing model. Description: Visceral pain model: PPQ-induced constrictions (writhing). Type of series: in vivo. How it is done: 1-[2-dimethylamino-1-(4-phenol)ethyl]-cis-1,4-cyclohexandiol was dissolved in sterile saline and administered orally (p.o.) at dosages of 10 mg/kg, 30 mg/kg and 100 mg/kg. Gabapentin was purchased from Toronto Research Chemicals (Ontario, Canada) and suspended in 2% Tween 80 in 0.5% methylcellulose and administered intraperitoneally (i.p.).
For the visceral pain study male CD-1 mice (20-25 g, Charles River; Kingston/Stoneridge, NY) were housed in groups of 5/cage on bedding and for the neuropathic study male Sprague-Dawley rats (125-150 g, Harlan; Indianapolis, Ind.) were housed 3/cage on bedding. […]
The ability of 1-[2-dimethylamino-1-(4-phenol)ethyl]-cis-1,4-cyclohexandiol to attenuate acute visceral (abdominal) pain was assessed following an i.p. injection of 2 mg/kg PPQ (dissolved in 4% ethanol in distilled water, Sigma-Aldrich, St. Louis, Mo.) [Siegmund, E., et al., Proceedings of the Society for Experimental Biology and Medicine., 95 (1957) […]]. […] During testing, following PPQ administration, mice were individually placed in a Plexiglas cage and the total number of abdominal constrictions was recorded for one-minute periods, starting at 5 and 10 minutes after PPQ injection.
Statistical significance was determined using a one-way ANOVA using a customized SAS-excel application (SAS Institute, Cary, N.C.). […]
(In general: In writhing tests, fewer writhes than in controls are read as antinociception.)

The test system of series [11] is Glutamate, NMDA agonist Site. The series is described as follows: Receptor binding assay: Glutamate NMDA agonist site. The conditions noted are these: Test Compound @ 10 1 M.
Series [12] deals with T5, Adrenergic, Alpha 2A (h) (Homo sapiens, UniProt P08913).
T5 construct: Novascreen (assay provider)
Description: Receptor binding assay: Adrenergic Alpha 2A. The conditions noted are these: Test Compound @ 10 1 M.

Series [13] deals with T6, Adrenergic, Alpha 1A (Rattus norvegicus, UniProt P43140).
T6 construct: Novascreen (assay provider)
The series is described as follows: Receptor binding assay: Adrenergic Alpha 1A. Conditions: Test Compound @ 10 1 M.

T2 sequence (P41145 whole entry): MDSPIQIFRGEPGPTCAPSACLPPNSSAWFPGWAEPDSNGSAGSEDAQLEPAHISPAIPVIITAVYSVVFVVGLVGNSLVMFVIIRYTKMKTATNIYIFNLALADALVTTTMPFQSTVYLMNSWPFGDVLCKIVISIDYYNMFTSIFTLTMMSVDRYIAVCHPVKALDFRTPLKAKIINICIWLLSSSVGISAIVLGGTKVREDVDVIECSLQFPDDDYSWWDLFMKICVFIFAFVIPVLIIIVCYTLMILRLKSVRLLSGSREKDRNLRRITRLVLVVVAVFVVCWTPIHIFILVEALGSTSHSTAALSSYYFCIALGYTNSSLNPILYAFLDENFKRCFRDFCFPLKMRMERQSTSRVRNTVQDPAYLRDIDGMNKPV
T5 sequence (P08913 whole entry): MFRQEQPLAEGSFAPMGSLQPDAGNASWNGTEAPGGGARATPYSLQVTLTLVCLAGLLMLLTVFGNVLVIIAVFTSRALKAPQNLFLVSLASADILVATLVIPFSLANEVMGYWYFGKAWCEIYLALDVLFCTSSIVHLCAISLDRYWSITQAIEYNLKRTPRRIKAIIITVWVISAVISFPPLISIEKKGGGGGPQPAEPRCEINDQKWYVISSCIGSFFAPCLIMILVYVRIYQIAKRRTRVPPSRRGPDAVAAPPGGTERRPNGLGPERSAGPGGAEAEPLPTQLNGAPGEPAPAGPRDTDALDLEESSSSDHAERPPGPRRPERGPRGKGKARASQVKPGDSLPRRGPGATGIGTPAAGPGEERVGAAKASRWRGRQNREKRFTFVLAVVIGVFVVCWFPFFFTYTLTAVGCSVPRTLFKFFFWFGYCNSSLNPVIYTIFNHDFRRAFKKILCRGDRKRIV
T1 sequence (P46098 24-478): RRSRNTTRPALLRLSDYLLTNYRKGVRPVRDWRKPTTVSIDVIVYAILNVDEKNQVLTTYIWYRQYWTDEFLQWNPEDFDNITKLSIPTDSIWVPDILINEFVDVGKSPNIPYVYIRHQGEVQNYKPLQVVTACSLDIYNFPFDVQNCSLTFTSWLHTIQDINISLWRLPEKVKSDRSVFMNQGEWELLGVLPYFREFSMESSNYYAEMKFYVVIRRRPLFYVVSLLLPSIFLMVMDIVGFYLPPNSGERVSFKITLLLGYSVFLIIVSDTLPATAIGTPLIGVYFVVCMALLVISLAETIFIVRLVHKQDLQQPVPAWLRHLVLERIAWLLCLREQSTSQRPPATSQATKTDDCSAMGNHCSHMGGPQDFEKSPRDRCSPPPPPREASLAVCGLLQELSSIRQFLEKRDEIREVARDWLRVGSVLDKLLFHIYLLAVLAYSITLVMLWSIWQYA
T6 sequence (P43140 whole entry): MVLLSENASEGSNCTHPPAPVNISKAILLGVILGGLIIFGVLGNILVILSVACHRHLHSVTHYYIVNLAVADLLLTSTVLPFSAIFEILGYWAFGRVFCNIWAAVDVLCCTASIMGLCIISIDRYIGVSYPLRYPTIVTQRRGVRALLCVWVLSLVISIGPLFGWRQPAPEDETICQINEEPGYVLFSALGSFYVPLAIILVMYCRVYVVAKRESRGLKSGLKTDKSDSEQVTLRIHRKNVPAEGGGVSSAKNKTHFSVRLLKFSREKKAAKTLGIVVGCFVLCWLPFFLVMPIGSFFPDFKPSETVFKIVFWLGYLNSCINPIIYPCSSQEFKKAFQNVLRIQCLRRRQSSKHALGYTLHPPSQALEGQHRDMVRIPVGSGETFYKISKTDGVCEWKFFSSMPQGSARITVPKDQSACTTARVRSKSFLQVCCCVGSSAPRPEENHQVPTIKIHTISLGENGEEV
Chain of Dopamine, D3 (hr) (P35462 whole entry): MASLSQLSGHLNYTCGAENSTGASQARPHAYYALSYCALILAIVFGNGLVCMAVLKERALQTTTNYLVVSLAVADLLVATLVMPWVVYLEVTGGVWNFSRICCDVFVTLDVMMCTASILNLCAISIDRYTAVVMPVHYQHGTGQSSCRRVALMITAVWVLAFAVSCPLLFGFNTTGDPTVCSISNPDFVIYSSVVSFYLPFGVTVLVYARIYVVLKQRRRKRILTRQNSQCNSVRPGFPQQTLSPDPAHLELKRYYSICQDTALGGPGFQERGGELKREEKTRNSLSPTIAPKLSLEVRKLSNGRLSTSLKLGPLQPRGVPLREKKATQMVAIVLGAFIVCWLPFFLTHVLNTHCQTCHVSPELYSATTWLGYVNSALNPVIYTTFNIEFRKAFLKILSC
T3 sequence (P28223 whole entry): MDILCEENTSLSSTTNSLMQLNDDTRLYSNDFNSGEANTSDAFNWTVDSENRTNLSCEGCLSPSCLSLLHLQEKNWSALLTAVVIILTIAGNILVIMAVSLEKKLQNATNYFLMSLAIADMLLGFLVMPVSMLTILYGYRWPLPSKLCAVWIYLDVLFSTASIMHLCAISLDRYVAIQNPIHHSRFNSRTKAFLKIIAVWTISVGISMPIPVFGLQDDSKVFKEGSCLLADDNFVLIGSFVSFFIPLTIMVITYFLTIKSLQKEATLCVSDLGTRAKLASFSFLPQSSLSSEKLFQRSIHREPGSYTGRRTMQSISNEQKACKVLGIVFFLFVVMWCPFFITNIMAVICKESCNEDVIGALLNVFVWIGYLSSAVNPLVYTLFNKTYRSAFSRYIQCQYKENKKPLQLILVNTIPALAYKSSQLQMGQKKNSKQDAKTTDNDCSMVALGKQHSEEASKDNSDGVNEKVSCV
T4 sequence (P35372 whole entry): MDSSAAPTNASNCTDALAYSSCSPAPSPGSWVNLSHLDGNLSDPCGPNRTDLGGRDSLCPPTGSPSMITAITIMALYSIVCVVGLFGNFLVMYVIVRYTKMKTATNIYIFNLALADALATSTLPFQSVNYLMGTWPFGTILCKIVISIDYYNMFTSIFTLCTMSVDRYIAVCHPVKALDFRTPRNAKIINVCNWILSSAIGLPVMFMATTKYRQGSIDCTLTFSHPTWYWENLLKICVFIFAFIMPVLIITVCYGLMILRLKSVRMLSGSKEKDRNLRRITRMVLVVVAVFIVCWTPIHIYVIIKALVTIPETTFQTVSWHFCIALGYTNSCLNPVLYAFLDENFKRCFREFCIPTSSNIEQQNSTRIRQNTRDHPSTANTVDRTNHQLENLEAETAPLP

Turning to `CN(C)CC(c1ccc(O)cc1)C1(O)CCC(O)CC1` (stereo not drawn) [1-[2-dimethylamino-1-(4-phenol)ethyl]-cis-1,4-cyclohexandiol], the “Receptor Binding % Inhibition” value in series [1] is given as 3.24%; in [11], −2.99%. The inhibition at 10 µM is 3.36% in series [2]; 9.72% in [4]; -4.17% in [5]; 3.7% in [6]; -0.35% in series [7]; 10.4% in series [12]. Further, in series [13], the inhibition at 10 µM is -1.96%. For the same compound, the “cortical 5-HT levels” value in series [3] is given as “Robust elevations”. In series [8] (7.5 mg/kg oral vs 2.5 mg/kg IV), this compound returned a bioavailability of 60%. Besides, the clearance in series [8] (single 2.5 mg/kg IV bolus) was ~7 mL/min/kg. The half-life in series [8] (single 2.5 mg/kg IV bolus, read-out: apparent terminal half-life (t1/2) (converted)) is 5.6 h; in series [8] (single oral dose of 7.5 mg/kg, read-out: terminal oral half-life (converted)), 6 h. Besides, the Vd in series [8] (single 2.5 mg/kg IV bolus, read-out: apparent volume of distribution (VSS)) amounted to 1.9 L/kg. Also, in [9], the Hygroscopicity result was “Non-hygroscopic”. The “Hygroscopicity, weight gain” value in [9] (at 26.30C/90% RH, weight gain is lost upon reduction in % RH) was < 2%. Moreover, in series [10] (100 mg/kg p.o., 60 minutes prior to PPQ, 100 mg/kg), the “reversal of visceral pain (reduction in writhing)” value was “statistically significant reversal; also recorded: significant reduction”. Further, the reduction in writhing result in series [10] (10 and 30 mg/kg p.o.) is “not statistically significant”.

The record behind these values is patent US20070015828A1 (Wyeth, priority 2005, published 2007).
